Molecules are shown by their SMILES. Converted amounts (≈) assume the structure as drawn.

Holding throughout (assay type): functional
For test [1], the system named is Bacillus subtilis. In words: Antibacterial activity against Bacillus subtilis assessed as inhibition of bacterial growth.
Test [2] in a line: Antioxidant activity assessed as trolox equivalent of DPPH radical scavenging activity by DPPH assay relative to trolox. (In general: Loss of DPPH colour is used to gauge radical scavenging.)
Test [3] is described as follows: Antioxidant activity assessed as DPPH radical scavenging activity by DPPH assay.
For test [4], the system named is Bacillus subtilis. As to the kind of experiment: Bactericidal activity against Bacillus subtilis assessed as decrease in cell survival.
Test [5] deals with Escherichia coli. In words: Antibacterial activity against Escherichia coli assessed as inhibition of bacterial growth.
The subject of test [6] is Escherichia coli. In words: Bactericidal activity against Escherichia coli assessed as decrease in cell survival.

Turning to `Oc1ccc([C@H]2COc3cc(O)c(O)cc3C2)cc1O`, the MIC with Bacillus subtilis [1] was 256 µg/mL (≈ 933 µM); in the test on Escherichia coli [5], 128 µg/mL (≈ 467 µM). Also, the Ratio IC50 in test [2] was determined as 2.28. In addition, the IC50 in test [3] turned out to be 112 µM. The MBC was 256 µg/mL (≈ 933 µM) in the test on Bacillus subtilis [4] and over 1020 µg/mL with Escherichia coli [6].
For the molecule `Oc1ccc2c(c1)OC[C@H](c1ccc(O)c(O)c1)C2`, the MIC is 256 µg/mL (≈ 991 µM) with Bacillus subtilis [1] and 512 µg/mL (≈ 1980 µM) with Escherichia coli [5]. The Ratio IC50 in test [2] was found to be 1.02. In addition, in test [3], the IC50 stood at 250 µM. In addition, the MBC in the test on Bacillus subtilis [4] and in the test with Escherichia coli [6] was 512 µg/mL (≈ 1980 µM) throughout.
Take `Oc1ccc([C@H]2COc3cc(O)c(O)cc3C2)cc1`: the figures for the MIC in the test on Bacillus subtilis [1] and in the test on Escherichia coli [5] were 128 µg/mL (≈ 496 µM) and 64 µg/mL (≈ 248 µM), respectively. Further, the Ratio IC50 in test [2] is 1.08. Besides, the IC50 in test [3] stood at 233 µM. For the same molecule, the MBC with Bacillus subtilis [4] was determined as 128 µg/mL (≈ 496 µM); in the test with Escherichia coli [6], 64 µg/mL (≈ 248 µM).
With `Oc1ccc([C@H]2COc3cc(O)ccc3C2)cc1` [AUS-131], the figures for the MIC in the test on Bacillus subtilis [1] and in the test on Escherichia coli [5] were 64 µg/mL (≈ 264 µM) and 256 µg/mL (≈ 1060 µM), respectively. In addition, the Ratio IC50 in test [2] is 4.99 10^-3No_unit. In test [3], the IC50 was determined as 52000 µM. The MBC was 256 µg/mL (≈ 1060 µM) in the test on Bacillus subtilis [4] and over 1020 µg/mL with Escherichia coli [6].
On to `O=c1c(-c2ccc(O)cc2)coc2cc(O)ccc12` [DAIDZEIN], for which the MIC in the test on Bacillus subtilis [1] and with Escherichia coli [5] was over 1020 µg/mL each time.
With `Cc1c(C)c2c(c(C)c1O)CCC(C)(C(=O)O)O2` (configuration not stated) [TROLOX], in test [3], the concentration for half-maximal inhibition (IC50) was 249 µM.

In general, MIC refers to the lowest concentration found to suppress growth. By IC50 is commonly meant the midpoint of a concentration-inhibition curve. What is called MBC is the smallest concentration meeting the test's criterion for killing.

For the origin of these results see ChEMBL document CHEMBL5104147, “Biocatalytic synthesis and evaluation of antioxidant and antibacterial activities of hydroxyequols” (Bioorg Med Chem Lett, 2022).
